Consider 2 compounds from ChEMBL document CHEMBL1142295, “A potential new prodrug for the treatment of cystinosis: design, synthesis and in-vitro evaluation” (Bioorg Med Chem Lett, 2008).

Activity calls are given as the source filed them. No cut-off for these calls is given here.

This test in a line: Depletion of lysosomal cystine in cystinotic fibroblasts GM00008 at 50 uM after 72 hrs. Type of test: functional, cell-based. The note with it: Fibroblast.

For `NCCS`, the result was Active. As to `CCCCCCCCCC(=O)NCCSSCCNC(=O)CCCCCCCCC`, the result was Active.
